Test results as given in patent US7919077B2, “Pharmaceutical compositions comprising CCL2 and use of same for the treatment of inflammation” (Yeda Research and Development Co. Ltd., priority 2006, dated 2011).

Legend:
naïve T cells [1] = test: Cytoskeleton rearrangement (actin polymerization), naïve T cells; type: cell-based, mice; conditions: naïve T cells pre-treated with CCL2 0.1 ng/ml, 15 seconds stimulation
Protocol: Cytoskeleton rearrangement—T cells were pre-incubated for 30 minutes in the presence or absence of CCL2 (0.1 ng/ml), and then stimulated with either CXCL12 (0.1 mg/ml PeproTech, Inc., Rocky Hill N.J.), SLC (CCL21, 0.4 mg/ml, PeproTech, Inc., Rocky Hill, N.J.), Rantes (0.1 mg/ml, R&D systems Minneapolis, Minn.), MIP-1β(0.1 mg/ml, R&D systems Minneapolis, Minn.) or Eotoxin (0.1 mg/ml R&D systems Minneapolis, Minn.) for 15 seconds. Cells were then immediately fixed with paraformaldehyde, permeabilized and their intracellular F-actin was stained with FITC-phalloidin (Sigma-Aldrich, St. Louis, Mo.), and then analyzed by flow cytometry to determine the state of their cytoskeleton, as previously described [Flaishon, L. F., et al., J. Biol. Chem. 276:46701 (2001)].

naïve T cells [2] = test: Tracking of cells in vivo: homing of naïve T cells to LN and spleen; parameters: species or system C57BL/6 mice; conditions: cells pre-incubated 30 min with CCL2 0.1 ng/ml, injected i.v., 3 hours, vs control
Protocol: Tracking of cells in vivo—T cells pre-incubated for 30 minutes in the presence or absence of CCL2 (0.1 ng/ml RPMI) were washed, and labeled with […] of the fluorescent dye CFDA-SE (Molecular Probes/Invitrogen, Carlsbad, Calif., USA) for 15 minutes at room temperature. Thereafter, an equal amount (0.33×10^7) of CCL2-treated or -untreated cells were injected i.v. into C57BL/6 mice. After 3 hours, LNs and spleens were collected and the FITC-positive population was analyzed by FACS. The proportion of labeled cells recovered in the LN and spleen was determined as previously described [Flaishon, L. R., J. Exp. Med. 192:1381 (2000)] in four different experiments (10 mice in each group).

ERK½ = test: ERK detection (phospho-ERK western blot) in naïve T cells; type: cell-based, mice; conditions: naïve T cells pre-treated with CCL2 30 minutes, CCL21 for 30 or 60 seconds; FIG. 3
Protocol: Stimulation of T cells—Cell stimulation was performed as previously described [Flaishon et al., J Biol Chem. (2001) 276:46701-46706]. Briefly, 1×10^7 T cells were suspended in 1 ml DMEM cell medium containing 10% (v/v) Fetal Calf Serum (FCS). Next, 0.1 ng/ml CCL2 (CytoLab) was added to each tube and the tubes were immediately placed in 37° C. for 30 minutes. Immediately after stimulation, cells were washed and handled as described hereinbelow.
Preparation of cell extract—Stimulated cells were lysed in lysis buffer containing: 25 mM Tris, pH 7.4; 2 mM Vanadate; 75 mM glycophosphate, pH 7.2; 2 mM EDTA; 2 mM EGTA; 10 mM NaPPi; and 0.5% NP-40, in the presence of the following protease inhibitors: 10 mg/ml Leupeptin; 10 mg/ml aprotinin; 10 mg/ml pepstatin; 10 mg/ml chymostatin (Roche); 1 mM PMSF (Sigma); and 20 mM N-etheyl-melamide (Sigma).
ERK detection—Cell lysates were separated on a 10% (wt/vol) SDS-PAGE. Proteins were electro-transferred to nitrocellulose membranes and reacted with anti-phospho-specific extracellular signal-regulated kinase (ERK) 1 or 2 (a kind gift from Dr Rony Seger, Weizmann Institute, Rehovot, Israel) followed by peroxidase-labeled goat anti-mouse (Jackson Labs), or reacted with polyclonal anti-Tubulin (Santa Cruz) followed by peroxidase anti-rabbit (Jackson Labs).

[3] = test system: human T cells interacting with ICAM-1 (LFA-1); test: Laminar flow adhesion assay on ICAM-1 with co-immobilized CCL21; type: cell-based; conditions: low dose chemokine pretreatment
Protocol: Laminar flow adhesion assays—Purified VCAM-1 or ICAM-1-Fc (both from R&D Systems, Minneapolis, Minn.) were coated with or without CCL21 (R&D Systems) on polystyrene plates as previously described [Grabovsky et al., J Exp Med. (2000) 192:495-506; Sigal et al., J Immunol. (2000) 165:442-452]. The polystyrene plates were each assembled on the lower wall of the flow chamber as previously described [Feigelson et al., J Biol Chem. (2001) 276:13891-13901]. All flow experiments were conducted at 37° C. Cells were washed with cation-free H/H medium, resuspended in binding medium (H/H medium supplemented with 1 mM CaCl2 and 1 mM MgCl2) and perfused through the flow chamber at low shear stress (0.5-0.75 dyn/cm^2) for 2 minutes. Tethers were defined as transient or rolling if cells attached briefly (<2 seconds) to the substrate and as arrests if immediately arrested and remaining stationary for at least 5 seconds of continuous flow. Frequencies of adhesive categories within differently pretreated cells were determined as a percentage of cells flowing immediately over the substrates, as previously described [Grabovsky et al., supra]. To assess resistance to detachment over time, accumulated cells were subjected to a shear stress of 5 dyn/cm^2 for 5 minutes. At the indicated time points, the number of cells that remained bound was expressed relative to T cell population originally accumulated in the first 2 minute period of the assay. Over 90% of cellular tethers to VCAM-1 or ICAM-1 were blocked by pretreating cells with VLA-4 or LFA-1 blockers respectively.

With “CCL2: mammalian (e.g., human) CCL2 protein, GenBank NM_002982 / NP_002973; murine CCL2 used in the asthma model” the “inhibition of CXCL12-induced actin polymerization” value (naïve T cells [1]; FIG. 2c) was 40-50%, the “inhibition of CCL21-induced actin polymerization” value (naïve T cells [1]; FIG. 2d) was 40-50% and the “reduction in homing of naïve T cells into the LN” value (naïve T cells [2]; FIG. 4a) was 50%. The “migration of T cells to the spleen” value (naïve T cells [2]; FIG. 4b) was “no difference”, the “CCL21-induced phosphorylation of ERK½” value (ERK½) was “inhibited” and the “post arrest adhesion strengthening on ICAM-1 (resistance to detachment)” value ([3]; high shear stress 5 dyn/cm^2, FIG. 6b) was “failed to develop adhesion strengthening”. The “LFA-1 activation by surface bound CCL21 (arrest on ICAM-1)” value ([3]; shear stress 0.5 dyn/cm^2, FIG. 6a) was “did not interfere”.
